Our source for the Ki values is US10981894B2, “Melanocortin subtype-2 receptor (MC2R) antagonists and uses thereof” (Crinetics Pharmaceuticals, Inc., priority 2018, dated 2021).

In the experiment the target is hMC2 receptor (Homo sapiens, UniProt Q01718). In words: hMC2 membrane binding assay ([125I]ACTH (1-39) Tyr23, SPA). Details: scale not given here. To be noted: crude hMC2R membranes from CRE-bla-CHO-K1 cells expressing hMC2 receptor and hMRAP; [125I]ACTH (1-39) Tyr23 0.2 nM; 1.5 hours at room temperature; read-out: MC2R binding potency. An outline of the steps: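 CRE-bla-CHO-K1 membranes co-expressing hMC2 receptor and hMRAP, preincubated with WGA PVT SPA beads in pH 7.4 HEPES/MgCl2/CaCl2/0.2% BSA buffer. Compounds (typically 0–10,000 nM final) compete with 0.2 nM [125I]ACTH(1-39) Tyr23 for 1.5 h at room temperature. SPA counts give Ki by non-linear regression.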
Chain of hMC2 receptor (Q01718 whole entry): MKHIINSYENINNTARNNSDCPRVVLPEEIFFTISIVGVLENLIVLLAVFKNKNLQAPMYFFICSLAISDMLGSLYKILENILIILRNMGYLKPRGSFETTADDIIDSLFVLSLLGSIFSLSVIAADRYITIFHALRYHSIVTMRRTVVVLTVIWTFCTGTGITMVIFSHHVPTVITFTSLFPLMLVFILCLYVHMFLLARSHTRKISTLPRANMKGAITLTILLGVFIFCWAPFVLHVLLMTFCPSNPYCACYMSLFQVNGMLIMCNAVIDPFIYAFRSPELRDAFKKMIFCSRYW
Chain of hMC2 receptor (Q8TCY5 whole entry partner): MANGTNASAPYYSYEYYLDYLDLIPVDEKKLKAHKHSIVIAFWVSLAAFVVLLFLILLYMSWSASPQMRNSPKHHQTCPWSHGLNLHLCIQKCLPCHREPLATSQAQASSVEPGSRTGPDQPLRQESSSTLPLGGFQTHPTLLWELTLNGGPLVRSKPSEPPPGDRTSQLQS
Turning to `CCOc1ncccc1-c1ccc(N2CCN(C(=O)C3(C(F)(F)F)CCCC3)C[C@H]2CC)c(C(=O)NC[C@H]2CCN2C)n1` [Compound 1-330, 2′-ethoxy-5-[(2R)-2-ethyl-4-[1-(trifluoromethyl)cyclopentanecarbonyl]piperazin-1-yl]-N-{[(2R)-1-methylazetidin-2-yl]methyl}-[2,3′-bipyridine]-6-carboxamide], the Ki is less than 10 nM. As to `CCOc1ncccc1-c1ccc(N2CCN(C(=O)[C@H]3CC[C@@H](C(F)(F)F)CC3)C[C@H]2CC)c(C(=O)N[C@@H]2CCN(C)C2)n1` [Compound 1-286, 2′-ethoxy-5-[(2R)-2-ethyl-4-[cis-4-(trifluoromethyl)cyclohexanecarbonyl]piperazin-1-yl]-N-[(3R)-1-methylpyrrolidin-3-yl]-[2,3′-bipyridine]-6-carboxamide], the Ki is less than 10 nM. Regarding `CCOc1ncccc1-c1ccc(N2CCN(C(=O)c3ccc(OC)cc3C(F)(F)F)C[C@H]2CC)c(C(=O)NC2CN(C)C2)c1F` [Compound 1-203, 3-(2-ethoxypyridin-3-yl)-6-[(2R)-2-ethyl-4-[4-methoxy-2-(trifluoromethyl)benzoyl]piperazin-1-yl]-2-fluoro-N-(1-methylazetidin-3-yl)benzamide], the Ki was less than 10 nM.

`CCOc1ccccc1-c1ccc(N2CCN(C(=O)C3(C(F)F)CCCC3)C[C@H]2CC)c(C(=O)N[C@@H]2CCN(C)C2)n1` [Compound 1-417, 3-[(2R)-4-[1-(difluoromethyl)cyclopentanecarbonyl]-2-ethylpiperazin-1-yl]-6-(2-ethoxyphenyl)-N-[(3R)-1-methylpyrrolidin-3-yl]pyridine-2-carboxamide]: the Ki was less than 10 nM. Regarding `CC[C@@H]1CN(C(=O)c2ccc(C(F)(F)F)cc2Cl)CCN1c1ccc(-c2ccccc2C(=O)NC)cc1C(=O)NCCN` [Compound 1-20, (R)-N3′-(2-aminoethyl)-4′-(4-(2-chloro-4-(trifluoromethyl)benzoyl)-2-ethylpiperazin-1-yl)-N2-methyl-[1,1′-biphenyl]-2,3′-dicarboxamide], the Ki is 10 to 100 nM. For the compound `CCOc1ccccc1-c1ccc(N2CCN(C(=O)N3CCC[C@H]3C(F)(F)F)C[C@H]2CC)c(C(=O)N[C@@H]2CCNC2)n1` [Compound 1-342, 6-(2-ethoxyphenyl)-3-[(2R)-2-ethyl-4-[(2S)-2-(trifluoromethyl)pyrrolidine-1-carbonyl]piperazin-1-yl]-N-[(3R)-pyrrolidin-3-yl]pyridine-2-carboxamide], the Ki is less than 10 nM. Turning to `CCOc1ncccc1-c1ccc(N2CCN(C(=O)c3ccc(Cl)cc3C(F)(F)F)C[C@H]2CC)c(C(=O)NCC2=NCCN2)n1` [Compound 1-226, 5-[(2R)-4-[4-chloro-2-(trifluoromethyl)benzoyl]-2-ethylpiperazin-1-yl]-N-[(4,5-dihydro-1H-imidazol-2-yl)methyl]-2′-ethoxy-[2,3′-bipyridine]-6-carboxamide], the Ki was less than 10 nM. Turning to `CCOc1ccc(C(=O)N2CCN(c3ccc(-c4cccnc4OCC)c(F)c3C(=O)NCCNC)[C@H](CC)C2)c(C(F)(F)F)n1` [Compound 1-165, 6-[(2R)-4-[6-ethoxy-2-(trifluoromethyl)pyridine-3-carbonyl]-2-ethylpiperazin-1-yl]-3-(2-ethoxypyridin-3-yl)-2-fluoro-N-[2-(methylamino)ethyl]benzamide], the Ki was less than 10 nM. With `CCOc1ncccc1-c1ccc(N2CCN(C(=O)c3ccc(F)cc3C(F)(F)F)C[C@H]2CC)c(C(=O)NCCc2ncc[nH]2)n1` [Compound 1-224, 2′-ethoxy-5-[(2R)-2-ethyl-4-[4-fluoro-2-(trifluoromethyl)benzoyl]piperazin-1-yl]-N-[2-(1H-imidazol-2-yl)ethyl]-[2,3′-bipyridine]-6-carboxamide], the Ki is less than 10 nM. For `CCOc1ncccc1-c1ccc(N2CCN(C(=O)C3(C(F)(F)F)CCCC3)C[C@H]2CC)c(C(=O)NC[C@@H]2CCN2C)n1` [Compound 1-331, 2′-ethoxy-5-[(2R)-2-ethyl-4-[1-(trifluoromethyl)cyclopentanecarbonyl]piperazin-1-yl]-N-{[(2S)-1-methylazetidin-2-yl]methyl}-[2,3′-bipyridine]-6-carboxamide] the value was less than 10 nM; for `CCOc1ncccc1-c1ccc(N2CCN(C(=O)c3ccc(Cl)cc3C(F)(F)F)C[C@H]2CC)c(C(=O)NC[C@H]2CCN2)c1F` [Compound 1-123, N-{[(2R)-azetidin-2-yl]methyl}-6-[(2R)-4-[4-chloro-2-(trifluoromethyl)benzoyl]-2-ethylpiperazin-1-yl]-3-(2-ethoxypyridin-3-yl)-2-fluorobenzamide], less than 10 nM; for `CCOc1ncccc1-c1ccc(N2CCN(C(=O)c3ccc(Cl)cc3C(F)(F)F)C[C@H]2CC)c(C(=O)N[C@@H]2CCN(C)C2)c1F` [Compound 1-199, 6-[(2R)-4-[4-chloro-2-(trifluoromethyl)benzoyl]-2-ethylpiperazin-1-yl]-3-(2-ethoxypyridin-3-yl)-2-fluoro-N-[(3R)-1-methylpyrrolidin-3-yl]benzamide], less than 10 nM. As to `CC[C@@H]1CN(C(=O)N2CCC[C@H]2C(C)(C)C)CCN1c1ccc(-c2ccccc2OC)nc1C(=O)N[C@@H]1CCNC1` [Compound 1-315, 3-[(2R)-4-[(2S)-2-tert-butylpyrrolidine-1-carbonyl]-2-ethylpiperazin-1-yl]-6-(2-methoxyphenyl)-N-[(3R)-pyrrolidin-3-yl]pyridine-2-carboxamide], the Ki was less than 10 nM. As to `CCOc1ncccc1-c1ccc(N2CCN(C(=O)c3ccc(Cl)cc3C(F)F)C[C@H]2CC)c(C(=O)N[C@@H]2CCNC2)n1` [Compound 1-265, 5-[(2R)-4-[4-chloro-2-(difluoromethyl)benzoyl]-2-ethylpiperazin-1-yl]-2′-ethoxy-N-[(3R)-pyrrolidin-3-yl]-[2,3′-bipyridine]-6-carboxamide], the Ki was less than 10 nM. On to `CCOc1ncccc1-c1ccc(N2CCN(C(=O)c3ccc(Cl)cc3C#N)C[C@H]2CC)c(C(=O)N[C@@H]2CCNC2)n1` [Compound 1-277, 5-[(2R)-4-(4-chloro-2-cyanobenzoyl)-2-ethylpiperazin-1-yl]-2′-ethoxy-N-[(3R)-pyrrolidin-3-yl]-[2,3′-bipyridine]-6-carboxamide], for which the Ki was less than 10 nM. As to `CCOc1ncccc1-c1ccc(N2CCN(C(=O)C34CCC(CC3)C4(C)C)C[C@H]2CC)c(C(=O)N[C@@H]2CCNC2)n1` [Compound 1-314, 5-[(2R)-4-{7,7-dimethylbicyclo[2.2.1]heptane-1-carbonyl}-2-ethylpiperazin-1-yl]-2′-ethoxy-N-[(3R)-pyrrolidin-3-yl]-[2,3′-bipyridine]-6-carboxamide], the Ki is less than 10 nM. With `CCOc1ncccc1-c1ccc(N2CCN(C(=O)c3ccc(Cl)cc3C(F)(F)F)C[C@H]2CC)c(C(=O)NC[C@@H]2CCN2)c1` [Compound 1-97, N-{[(2S)-azetidin-2-yl]methyl}-2-[(2R)-4-[4-chloro-2-(trifluoromethyl)benzoyl]-2-ethylpiperazin-1-yl]-5-(2-ethoxypyridin-3-yl)benzamide], the Ki is less than 10 nM. As for `CCOc1ccccc1-c1ccc(N2CCN(C(=O)c3ccc(Cl)cc3C(F)(F)F)C[C@H]2CC)c(C(=O)NC2CN(C)C2)n1` [Compound 1-221, 3-[(2R)-4-[4-chloro-2-(trifluoromethyl)benzoyl]-2-ethylpiperazin-1-yl]-6-(2-ethoxyphenyl)-N-(1-methylazetidin-3-yl)pyridine-2-carboxamide], the Ki was less than 10 nM.
